From patent US20220008537A1, “COMPOUNDS FOR PHOTODYNAMIC THERAPY AND RELATED USES” (GEORGIA STATE UNIVERSITY RESEARCH FOUNDATION, INC., priority 2018, published 2022)

Columns and labels:
pUC19 plasmid DNA = experiment: DNA photocleavage inhibition induced by chemical additives; format: biochemical; conditions: 20 μM dye, 38 μM bp pUC19, 830 nm 300 mW LED laser, pH 7.0
Description: Individual DNA cleavage reactions containing 5 μM to 50 μM concentrations of cyanine dye, 38 μM bp of pUC19 plasmid, and 10 mM of sodium phosphate pH 7.0 were prepared in a total volume of 40 μL. In order maintain reaction temperature at 10° C., 22° C., or 37° C., the samples were placed in a thermometer-fitted metal block that was either heated, kept at room temperature, or immersed in an ice bath. While monitoring temperature with the thermometer, the samples were either kept in the dark or were irradiated at time interval ranging from 5 min to 120 min using a light emitting diode (LED) laser (LaserLands) with a peak emission wavelength of either 532 nm (100 mW), 808 nm (300 mW), or 830 nm (300 mW). At the end of the irradiation time interval, a total of 3 μL of electrophoresis loading buffer containing 15.0% (w/v) ficoll and 0.025% (w/v) bromophenol blue) was added to each reaction and 20 μL of the resulting solution was added to one of the wells of 1.5% agarose gel stained with ethidium bromide (0.5 μg/mL, final concentration). Completely loaded gels were then electrophoresed for 60 min at 105 V in a Bio-Rad Laboratories gel box using 1×tris-acetate-EDTA (TAE) containing 0.5 μg/mL ethidium bromide as the running buffer. Electrophoresed gels were visualized at 302 nm with a VWR Scientific LM-20E transilluminator and then photographed with a UVP PhotoDoc-ItTM Imaging System. For quantitating the gels, ImageQuant version 5.2 software was employed. The DNA photocleavage yields were then calculated using the formula: Percent Photocleavage=[(Linear+Nicked DNA)/(Linear+Nicked+Supercoiled DNA)]×100. In an argon-purged glove box, 40 μL photocleavage reactions containing 10 mM sodium phosphate buffer pH 7.0, 20 μM of cyanine dye, and 38 μM bp of pUC19 plasmid were prepared from solutions bubbled with argon and then irradiated at 830 nm for 30 min The procedure was repeated using aerated solutions in a glove box purged with air. A second set of reactions containing 10 mM of sodium phosphate buffer pH 7.0, 38 μM bp pUC19 plasmid DNA and 20 μM of dye were prepared in the presence and absence of either 100 mM of the singlet oxygen scavenger sodium azide, 100 mM of the hydroxyl radical scavenger sodium benzoate, or 84% D2O (v/v). […] After the irradiation, the above DNA reactions were electrophoresed on 1.5% non-denaturing agarose gels, visualized, and quantitated as just described. The percent change in DNA photocleavage was then calculated using the formula, where additive stands for either argon, sodium azide, sodium benzoate, or D2O: Percent Change in Cleavage=[(% Total of Linear and Nicked […] additive-% Total of Linear and Nicked DNAwithout additive)/(% Total of Linear and Nicked DNAwithout additive)]×100. […]

Row | Structure (SMILES) | melting point | Photocleavage inhibition (%) (pUC19 plasmid DNA; Reagent Argon (targets 1O2 & •OH)) | Photocleavage inhibition (%) (pUC19 plasmid DNA; Reagent D2O 84% (v/v) (target 1O2)) | Photocleavage inhibition (%) (pUC19 plasmid DNA; Reagent Sodium azide 100 mM (targets 1O2 > •OH)) | Photocleavage inhibition (%) (pUC19 plasmid DNA; Reagent Sodium benzoate 100 mM (target •OH))
1 | CN1C=C/C(=C/C=C/C=C/c2cc[n+](C)c3ccccc23)c2ccccc21.[I-] [Dye 4, 1-methyl-4-((1E,3E)-5-((Z)-1-methylquinolin-4(1H)-ylidene)penta-1,3-dien-1-yl)quinolin-1-ium iodide] | 239 °C (dec.) |  |  |  | 
2 | CN1C=C/C(=C/C=C(Cl)/C=C/c2cc[n+](C)c3ccccc23)c2ccccc21.[I-] [Dye 5, 4-((1E,3Z)-3-chloro-5-((Z)-1-methylquinolin-4(1H)-ylidene)penta-1,3-dien-1-yl)-1-methylquinolin-1-ium iodide] | > 260 °C | 67 ± 3 | 6 ± 1 | 26 ± 3 | 31 ± 2
